From US11986471B2, “Compounds and methods of use” (Tango Therapeutics, Inc., priority 2018, dated 2024)

Legend:
PRMT5 [1] = molecular target: T1, PRMT5 (Homo sapiens, UniProt O14744); assay: PRMT5 IC50 assay in the presence of MTA as cofactor; type: biochemical; settings: for IC50: PRMT5, MTA as cofactor; for SAM/MTA Ratio: ratio between the Ki in the presence of SAM and the Ki in the presence of MTA
T1 construct: purchased Viva (custom protein)
How it was run: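 Potency against PRMT5 is compared across cofactor states, where IC50 equals Ki×1.5 with SAM present and Ki×13.5 with MTA present.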

PRMT5 [2] = molecular target: T1, PRMT5; assay: PRMT5 IC50 assay in the presence of SAM as cofactor; type: biochemical
How it was run: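 For the SAM-containing format, dividing IC50 by 1.5 yields Ki; for the MTA-containing format the divisor is 13.5. A third format without cofactor gives IC50 alone.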

HAP1 MTAP-intact = assay: SDMA in-cell western assay, HAP1 MTAP-intact cell line; type: cell-based; settings: Homo sapiens
How it was run: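 IC50 values come from SDMA in-cell western staining of HAP1 cells. The MTAP-intact line carries endogenous MTAP, while its MTAP-deleted counterpart lacks MTAP entirely. A selectivity ratio of at least 3 fold marks a compound as MTAP-selective.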

PRMT5 [3] = molecular target: T1, PRMT5; assay: PRMT5 IC50 assay with no cofactor; type: biochemical
How it was run: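 IC50 values were measured against human PRMT5 with SAM, with MTA, or with no cofactor. Ki was derived from IC50 as Ki=IC50/1.5 with SAM and Ki=IC50/13.5 with MTA, and the Ki(SAM)/Ki(MTA) ratio was then taken.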

HAP1 MTAP-deleted = assay: SDMA in-cell western assay, HAP1 MTAP-deleted cell line; type: cell-based; settings: for IC50: Homo sapiens, HAP1 MTAP-deleted cell line; for MTAP Intact/Deleted Ratio: IC50 ratio HAP1 MTAP-intact / HAP1 MTAP-deleted
How it was run: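 Readout is cellular SDMA signal by in-cell western, with IC50 values derived from it. The cells are MTAP-null HAP1, matched to an isogenic MTAP-intact HAP1 line.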

T1 sequence (O14744 whole entry): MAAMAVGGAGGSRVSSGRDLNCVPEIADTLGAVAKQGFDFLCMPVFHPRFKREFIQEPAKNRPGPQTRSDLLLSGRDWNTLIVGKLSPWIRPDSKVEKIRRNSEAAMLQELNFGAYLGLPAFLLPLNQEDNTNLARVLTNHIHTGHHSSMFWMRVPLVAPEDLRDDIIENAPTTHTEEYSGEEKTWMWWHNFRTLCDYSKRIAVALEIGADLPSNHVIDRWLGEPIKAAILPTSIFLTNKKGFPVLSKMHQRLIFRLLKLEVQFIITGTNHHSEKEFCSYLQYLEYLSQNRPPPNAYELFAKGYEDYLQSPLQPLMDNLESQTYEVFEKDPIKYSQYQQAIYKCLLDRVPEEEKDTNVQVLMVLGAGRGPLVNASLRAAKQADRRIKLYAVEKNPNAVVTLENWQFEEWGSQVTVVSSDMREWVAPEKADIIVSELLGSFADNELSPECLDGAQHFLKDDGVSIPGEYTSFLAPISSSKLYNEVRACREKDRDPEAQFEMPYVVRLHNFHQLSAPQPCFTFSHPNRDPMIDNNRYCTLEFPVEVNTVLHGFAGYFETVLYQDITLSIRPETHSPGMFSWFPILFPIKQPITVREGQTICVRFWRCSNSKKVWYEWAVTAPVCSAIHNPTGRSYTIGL
T1 sequence (Q9BQA1 whole entry partner): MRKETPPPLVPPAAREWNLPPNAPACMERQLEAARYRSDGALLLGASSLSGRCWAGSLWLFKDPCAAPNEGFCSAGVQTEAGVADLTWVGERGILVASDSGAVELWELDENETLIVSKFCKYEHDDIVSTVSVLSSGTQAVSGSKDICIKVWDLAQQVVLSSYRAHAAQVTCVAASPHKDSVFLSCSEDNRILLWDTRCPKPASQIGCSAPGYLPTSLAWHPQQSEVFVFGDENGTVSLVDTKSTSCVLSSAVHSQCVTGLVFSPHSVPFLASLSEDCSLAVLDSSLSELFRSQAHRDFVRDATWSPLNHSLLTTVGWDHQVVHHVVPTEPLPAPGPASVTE

| SMILES | IC50 (PRMT5 [1]) | IC50 (PRMT5 [2]) | IC50 (HAP1 MTAP-intact) | IC50 (PRMT5 [3]) | IC50 (HAP1 MTAP-deleted) | SAM/MTA Ratio (PRMT5 [1]) | MTAP Intact/Deleted Ratio (HAP1 MTAP-deleted) |
| --- | --- | --- | --- | --- | --- | --- | --- |
| Cc1c(OCc2cnco2)ccc2c1CCN(C[C@@H](O)CNC(=O)c1ccnc(NC3CN(C(=O)CC(C)C)C3)c1)C2 [Compound 522, (S)—N-(2-hydroxy-3-(5-methyl-6-(oxazol-5-ylmethoxy)-3N-dihydroisoquinolin-2(1H)-yl)propyl)-2-((1-(3-methylbutanoyl)azetidin-3-yl)amino)isonicotinamide] | 50 to 500 nM | 50 to 500 nM | ≥ 10000 nM | ≥ 5000 nM | ≥ 10000 nM | A (a Ki ratio greater than or equal to 10 fold between the Ki in the presence of SAM and the Ki in the presence of MTA) | C* (an IC50 ratio of less than 3 fold between the IC50 in the HAP1 MTAP-intact cell line and the HAP1 MTAP-deleted cell line) |
| CC(=O)N1CCC(Nc2cccc(C(=O)NC[C@H](O)CN3CCc4cc(OCc5cnco5)ccc4C3)c2)CC1 [Compound 527] | 50 to 500 nM | 50 to 500 nM | ≥ 10000 nM | 500 to 5000 nM | 1000 to 10000 nM | A (a Ki ratio greater than or equal to 10 fold between the Ki in the presence of SAM and the Ki in the presence of MTA) | B* (an IC50 ratio greater than or equal to 3 fold but lower than 10 fold between the IC50 in the HAP1 MTAP-intact cell line and the HAP1 MTAP-deleted cell line) |
| CC(=O)N1CCC(Nc2cccc(C(=O)NC[C@H](O)CN3CCc4c(ccc(OCc5cnco5)c4C)C3)c2)CC1 [Compound 529, 3-[(1-acetylpiperidin-4-yl)amino]-N-[(2S)-2-hydroxy-3-{5-methyl-6-[(1,3-oxazol-5-yl)methoxy]-1,2,3,4-tetrahydroisoquinolin-2-yl}propyl]benzamide] | 50 to 500 nM | 50 to 500 nM | ≥ 10000 nM | 500 to 5000 nM | 1000 to 10000 nM | A (a Ki ratio greater than or equal to 10 fold between the Ki in the presence of SAM and the Ki in the presence of MTA) | B* (an IC50 ratio greater than or equal to 3 fold but lower than 10 fold between the IC50 in the HAP1 MTAP-intact cell line and the HAP1 MTAP-deleted cell line) |
| Cc1ncoc1COc1ccc2c(c1C)CCN(C[C@@H](O)CNC(=O)c1ccc3c(c1)CCN(C(=O)c1ccc(Br)cc1)C3)C2 [Compound 530] | 50 to 500 nM | 50 to 500 nM | ≥ 10000 nM | ≥ 5000 nM | ≥ 10000 nM | A (a Ki ratio greater than or equal to 10 fold between the Ki in the presence of SAM and the Ki in the presence of MTA) | C* (an IC50 ratio of less than 3 fold between the IC50 in the HAP1 MTAP-intact cell line and the HAP1 MTAP-deleted cell line) |
| CC(=O)N1CC(Nc2cc(C(=O)NC[C@H](O)CN3CCc4c(ccc(OCc5cnco5)c4Cl)C3)nc(N3CCCCC3)n2)C1 [Compound 532] | 50 to 500 nM | 50 to 500 nM | ≥ 10000 nM | 500 to 5000 nM | < 1000 nM | A (a Ki ratio greater than or equal to 10 fold between the Ki in the presence of SAM and the Ki in the presence of MTA) | A* (an IC50 ratio greater than or equal to 10 fold between the IC50 in the HAP1 MTAP-intact cell line and the HAP1 MTAP-deleted cell line) |
| COc1ccc(C(=O)N2CCc3cc(C(=O)NC[C@H](O)CN4CCc5c(ccc(OCc6ocnc6C)c5C)C4)ccc3C2)cc1 [Compound 533, N-[(2S)-2-hydroxy-3-{5-methyl-6-[(4-methyl-1,3-oxazol-5-yl)methoxy]-1,2,3,4-tetrahydroisoquinolin-2-yl}propyl]-2-(4-methoxybenzoyl)-1,2,3,4-tetrahydroisoquinoline-6-carboxamide] | 50 to 500 nM | 50 to 500 nM | ≥ 10000 nM | ≥ 5000 nM | 1000 to 10000 nM | A (a Ki ratio greater than or equal to 10 fold between the Ki in the presence of SAM and the Ki in the presence of MTA) | C* (an IC50 ratio of less than 3 fold between the IC50 in the HAP1 MTAP-intact cell line and the HAP1 MTAP-deleted cell line) |
| CC(=O)N1CC(Nc2cc(C(=O)NC[C@H](O)CN3CCc4cc(OCc5ocnc5C)ccc4C3)nc(N3CCCCC3)n2)C1 [Compound 534, 6-[(1-acetylazetidin-3-yl)amino]-N-[(2S)-2-hydroxy-3-{6-[(4-methyl-1,3-oxazol-5-yl)methoxy]-1,2,3,4-tetrahydroisoquinolin-2-yl}propyl]-2-(piperidin-1-yl)pyrimidine-4-carboxamide] | < 50 nM | 50 to 500 nM | 1000 to 10000 nM | 500 to 5000 nM | < 1000 nM | A (a Ki ratio greater than or equal to 10 fold between the Ki in the presence of SAM and the Ki in the presence of MTA) | A* (an IC50 ratio greater than or equal to 10 fold between the IC50 in the HAP1 MTAP-intact cell line and the HAP1 MTAP-deleted cell line) |
| Cc1ncoc1COc1ccc2c(c1C)CCN(C[C@@H](O)CNC(=O)c1cc(NC3CCC3)nc(N3CCN(C(C)C)CC3)c1)C2 [Compound 539, 2-(cyclobutylamino)-N-[(2S)-2-hydroxy-3-{5-methyl-6-[(4-methyl-1,3-oxazol-5-yl)methoxy]-1,2,3,4-tetrahydroisoquinolin-2-yl}propyl]-6-[4-(propan-2-yl)piperazin-1-yl]pyridine-4-carboxamide] | 50 to 500 nM | 50 to 500 nM | ≥ 10000 nM | 500 to 5000 nM | ≥ 10000 nM | A (a Ki ratio greater than or equal to 10 fold between the Ki in the presence of SAM and the Ki in the presence of MTA) | C* (an IC50 ratio of less than 3 fold between the IC50 in the HAP1 MTAP-intact cell line and the HAP1 MTAP-deleted cell line) |
| COc1ccc(C(=O)N2CCc3cc(C(=O)NC[C@H](O)CN4CCc5c(ccc(OCc6cnco6)c5C)C4)ccc3C2)cc1 [Compound 540, N-[(2S)-2-hydroxy-3-{5-methyl-6-[(1,3-oxazol-5-yl)methoxy]-1,2,3,4-tetrahydroisoquinolin-2-yl}propyl]-2-(4-methoxybenzoyl)-1,2,3,4-tetrahydroisoquinoline-6-carboxamide] | 50 to 500 nM | 50 to 500 nM | ≥ 10000 nM | 500 to 5000 nM | 1000 to 10000 nM | A (a Ki ratio greater than or equal to 10 fold between the Ki in the presence of SAM and the Ki in the presence of MTA) | C* (an IC50 ratio of less than 3 fold between the IC50 in the HAP1 MTAP-intact cell line and the HAP1 MTAP-deleted cell line) |

Now from value to compound, other results behind:

| IC50 (PRMT5 [1]) | IC50 (PRMT5 [2]) | IC50 (HAP1 MTAP-intact) | IC50 (PRMT5 [3]) | IC50 (HAP1 MTAP-deleted) | SMILES | SAM/MTA Ratio (PRMT5 [1]) | MTAP Intact/Deleted Ratio (HAP1 MTAP-deleted) |
| --- | --- | --- | --- | --- | --- | --- | --- |
| 50 to 500 nM | 50 to 500 nM | ≥ 10000 nM | ≥ 5000 nM | 1000 to 10000 nM | Cc1c(OCc2cnco2)ccc2c1CCN(C[C@@H](O)CNC(=O)c1cc(NC3CCN(C(=O)C(C)C)CC3)ncn1)C2 [Compound 520, N-[(2S)-2-hydroxy-3-{5-methyl-6-[(1,3-oxazol-5-yl)methoxy]-1,2,3,4-tetrahydroisoquinolin-2-yl}propyl]-6-{[1-(2-methylpropanoyl)piperidin-4-yl]amino}pyrimidine-4-carboxamide] | A (a Ki ratio greater than or equal to 10 fold between the Ki in the presence of SAM and the Ki in the presence of MTA) | B* (an IC50 ratio greater than or equal to 3 fold but lower than 10 fold between the IC50 in the HAP1 MTAP-intact cell line and the HAP1 MTAP-deleted cell line) |
| 50 to 500 nM | 50 to 500 nM | ≥ 10000 nM | ≥ 5000 nM | ≥ 10000 nM | Cc1c(OCc2cnco2)ccc2c1CCN(C[C@@H](O)CNC(=O)c1cc(NC3CCN(C(=O)C(C)(C)C)CC3)ncn1)C2 [Compound 523, 6-{[1-(2,2-dimethylpropanoyl)piperidin-4-yl]amino}-N-[(2S)-2-hydroxy-3-{5-methyl-6-[(1,3-oxazol-5-yl)methoxy]-1,2,3,4-tetrahydroisoquinolin-2-yl}propyl]pyrimidine-4-carboxamide] | A (a Ki ratio greater than or equal to 10 fold between the Ki in the presence of SAM and the Ki in the presence of MTA) | C* (an IC50 ratio of less than 3 fold between the IC50 in the HAP1 MTAP-intact cell line and the HAP1 MTAP-deleted cell line) |
| 50 to 500 nM | 50 to 500 nM | ≥ 10000 nM | 500 to 5000 nM | 1000 to 10000 nM | Cc1c(OCc2cnco2)ccc2c1CCN(C[C@@H](O)CNC(=O)c1cc(NC3CCN(C(=O)CC(C)C)CC3)ncn1)C2 [Compound 528] | A (a Ki ratio greater than or equal to 10 fold between the Ki in the presence of SAM and the Ki in the presence of MTA) | C* (an IC50 ratio of less than 3 fold between the IC50 in the HAP1 MTAP-intact cell line and the HAP1 MTAP-deleted cell line) |
| 50 to 500 nM | 50 to 500 nM | ≥ 10000 nM | 500 to 5000 nM | 1000 to 10000 nM | Cc1c(OCc2cnco2)ccc2c1CCN(C[C@@H](O)CNC(=O)c1cc(NC3CCN(C(=O)C4CCC4)CC3)ncn1)C2 [Compound 536, 6-[(1-cyclobutanecarbonylpiperidin-4-yl)amino]-N-[(2S)-2-hydroxy-3-{5-methyl-6-[(1,3-oxazol-5-yl)methoxy]-1,2,3,4-tetrahydroisoquinolin-2-yl}propyl]pyrimidine-4-carboxamide] | A (a Ki ratio greater than or equal to 10 fold between the Ki in the presence of SAM and the Ki in the presence of MTA) | B* (an IC50 ratio greater than or equal to 3 fold but lower than 10 fold between the IC50 in the HAP1 MTAP-intact cell line and the HAP1 MTAP-deleted cell line) |
